Measured values: patent publication US11739098B2 (BRISTOL-MYERS SQUIBB COMPANY, priority 2017, dated 2023)

How the values were obtained:
Format in all cases: cell-based
human TLR9 = target: T1, human TLR9 (Homo sapiens, UniProt Q9NR96); test: TLR9 inhibition reporter assay (HEK-Blue cells, SEAP reporter, ODN2006 stimulation); details: HEK-Blue cells overexpressing human TLR9, SEAP reporter, ODN2006 5 nM
T1 construct: host or cells: HEK-Blue cells (HEK293-derived reporter line)
T1 sequence (Q9NR96 26-1032): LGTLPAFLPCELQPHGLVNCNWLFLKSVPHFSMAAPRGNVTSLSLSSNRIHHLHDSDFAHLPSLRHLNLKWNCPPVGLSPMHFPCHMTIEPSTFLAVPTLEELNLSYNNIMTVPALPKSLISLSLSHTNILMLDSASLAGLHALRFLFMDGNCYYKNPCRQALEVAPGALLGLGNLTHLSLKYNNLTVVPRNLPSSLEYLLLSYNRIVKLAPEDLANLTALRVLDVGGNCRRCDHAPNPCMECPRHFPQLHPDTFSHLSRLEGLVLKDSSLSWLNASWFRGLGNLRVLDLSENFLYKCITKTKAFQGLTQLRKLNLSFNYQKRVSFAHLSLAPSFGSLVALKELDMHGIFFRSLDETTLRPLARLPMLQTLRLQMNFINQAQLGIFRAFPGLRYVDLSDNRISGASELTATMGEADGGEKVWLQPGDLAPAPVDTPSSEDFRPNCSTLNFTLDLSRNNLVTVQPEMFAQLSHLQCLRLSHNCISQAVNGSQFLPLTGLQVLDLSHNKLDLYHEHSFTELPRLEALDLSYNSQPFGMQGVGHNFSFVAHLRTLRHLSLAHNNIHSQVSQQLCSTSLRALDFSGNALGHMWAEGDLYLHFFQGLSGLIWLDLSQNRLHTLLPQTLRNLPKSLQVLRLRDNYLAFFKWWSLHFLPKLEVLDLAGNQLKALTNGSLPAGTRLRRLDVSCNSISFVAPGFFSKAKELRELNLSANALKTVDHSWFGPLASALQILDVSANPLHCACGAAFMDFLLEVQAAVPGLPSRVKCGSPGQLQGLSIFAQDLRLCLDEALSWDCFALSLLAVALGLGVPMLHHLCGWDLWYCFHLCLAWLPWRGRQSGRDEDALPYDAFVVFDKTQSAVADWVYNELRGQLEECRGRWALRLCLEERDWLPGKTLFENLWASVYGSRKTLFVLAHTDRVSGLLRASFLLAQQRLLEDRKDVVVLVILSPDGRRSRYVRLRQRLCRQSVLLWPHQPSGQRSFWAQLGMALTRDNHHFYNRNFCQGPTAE
Outline: (§1)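 HEK-Blue cells overexpressing human TLR7, TLR8 or TLR9 (NF-κB/AP-1-driven SEAP) pre-treated 30 min at room temperature with compound (0.05 nM–50 μM), then stimulated with gardiquimod 7.5 μM (TLR7), R848 15.9 μM (TLR8) or ODN2006 5 nM (TLR9). SEAP read colorimetrically after 22 h at 37 °C; % inhibition calculated.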

human TLR7 = target: T2, human TLR7 (Homo sapiens, UniProt Q9NYK1); test: TLR7 inhibition reporter assay (HEK-Blue cells, SEAP reporter, gardiquimod stimulation); details: HEK-Blue cells overexpressing human TLR7, SEAP reporter, gardiquimod 7.5 μM
T2 construct: host or cells: HEK-Blue cells (HEK293-derived reporter line)
T2 sequence (Q9NYK1 27-1049): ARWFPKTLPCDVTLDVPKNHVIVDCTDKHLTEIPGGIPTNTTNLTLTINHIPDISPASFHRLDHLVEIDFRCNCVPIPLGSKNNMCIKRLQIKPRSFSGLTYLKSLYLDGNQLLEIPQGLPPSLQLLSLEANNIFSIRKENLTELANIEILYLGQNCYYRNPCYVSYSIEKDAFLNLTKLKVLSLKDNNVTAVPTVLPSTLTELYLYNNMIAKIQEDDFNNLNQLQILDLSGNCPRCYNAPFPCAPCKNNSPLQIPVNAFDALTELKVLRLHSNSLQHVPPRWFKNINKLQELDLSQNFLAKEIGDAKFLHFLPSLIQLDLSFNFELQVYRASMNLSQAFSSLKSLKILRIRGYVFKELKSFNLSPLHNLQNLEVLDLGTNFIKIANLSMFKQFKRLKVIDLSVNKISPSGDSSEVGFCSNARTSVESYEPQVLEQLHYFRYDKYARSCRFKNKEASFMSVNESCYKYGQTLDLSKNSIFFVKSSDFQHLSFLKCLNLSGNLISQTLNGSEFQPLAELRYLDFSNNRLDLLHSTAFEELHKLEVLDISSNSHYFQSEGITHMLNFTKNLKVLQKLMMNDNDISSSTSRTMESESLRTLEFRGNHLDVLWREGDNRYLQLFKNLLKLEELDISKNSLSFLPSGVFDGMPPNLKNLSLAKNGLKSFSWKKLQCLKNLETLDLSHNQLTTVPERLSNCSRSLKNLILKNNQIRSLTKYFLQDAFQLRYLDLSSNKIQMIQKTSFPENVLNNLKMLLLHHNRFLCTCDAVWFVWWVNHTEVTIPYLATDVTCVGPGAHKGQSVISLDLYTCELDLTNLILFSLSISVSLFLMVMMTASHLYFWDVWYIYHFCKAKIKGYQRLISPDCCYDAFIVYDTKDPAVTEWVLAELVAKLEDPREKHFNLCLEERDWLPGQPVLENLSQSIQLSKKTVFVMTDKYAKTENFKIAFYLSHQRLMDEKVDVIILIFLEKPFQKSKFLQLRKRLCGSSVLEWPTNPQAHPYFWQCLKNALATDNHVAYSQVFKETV
Outline: as §1

human TLR8 = target: T3, human TLR8 (Homo sapiens, UniProt Q9NR97); test: TLR8 inhibition reporter assay (HEK-Blue cells, SEAP reporter, R848 stimulation); details: HEK-Blue cells overexpressing human TLR8, SEAP reporter, R848 15.9 μM
T3 construct: host or cells: HEK-Blue cells (HEK293-derived reporter line)
T3 sequence (Q9NR97 27-1041): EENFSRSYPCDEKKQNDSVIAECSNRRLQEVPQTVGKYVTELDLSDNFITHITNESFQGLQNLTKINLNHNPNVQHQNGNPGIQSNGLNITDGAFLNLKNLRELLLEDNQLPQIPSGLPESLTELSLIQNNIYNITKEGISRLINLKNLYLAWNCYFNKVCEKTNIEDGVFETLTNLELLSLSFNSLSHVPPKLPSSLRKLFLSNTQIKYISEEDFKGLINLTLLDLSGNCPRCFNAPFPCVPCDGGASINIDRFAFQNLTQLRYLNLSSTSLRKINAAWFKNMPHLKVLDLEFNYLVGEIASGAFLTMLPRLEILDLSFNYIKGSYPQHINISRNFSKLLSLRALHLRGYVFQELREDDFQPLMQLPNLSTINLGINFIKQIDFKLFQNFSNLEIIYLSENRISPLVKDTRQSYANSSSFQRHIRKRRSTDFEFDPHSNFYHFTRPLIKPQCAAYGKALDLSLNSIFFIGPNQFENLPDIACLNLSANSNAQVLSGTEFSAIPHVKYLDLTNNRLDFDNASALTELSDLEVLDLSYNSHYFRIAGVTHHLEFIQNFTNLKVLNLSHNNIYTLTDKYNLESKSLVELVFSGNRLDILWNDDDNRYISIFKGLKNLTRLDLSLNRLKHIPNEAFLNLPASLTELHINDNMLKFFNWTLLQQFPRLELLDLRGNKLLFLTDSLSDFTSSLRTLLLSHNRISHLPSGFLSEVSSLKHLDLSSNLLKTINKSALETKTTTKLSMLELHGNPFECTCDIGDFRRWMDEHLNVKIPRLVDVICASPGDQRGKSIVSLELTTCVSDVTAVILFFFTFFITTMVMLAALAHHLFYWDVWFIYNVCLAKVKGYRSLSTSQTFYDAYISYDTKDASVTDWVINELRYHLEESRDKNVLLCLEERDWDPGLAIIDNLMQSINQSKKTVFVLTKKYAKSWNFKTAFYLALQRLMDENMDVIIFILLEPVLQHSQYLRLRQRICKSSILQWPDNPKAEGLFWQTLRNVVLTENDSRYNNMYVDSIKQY
Outline: as §1

Compound | IC50 (human TLR9) | IC50 (human TLR7) | IC50 (human TLR8)
CCc1c(-c2cnc3cc(C)cnn23)[nH]c2ccc(C3CCNCC3)cc12 [Example 108, 3-(3-ethyl-5-(piperidin-4-yl)-1H-indol-2-yl)-7-methylimidazo[1,2-b]pyridazine] | 1000 to 50000 nM | > 50000 nM | 1000 to 50000 nM
CC(C)c1c(-c2ccc(Cl)c3[nH]ncc23)[nH]c2ccc(C3CCNCC3)cc12 [Example 106, 7-chloro-4-(3-isopropyl-5-(piperidin-4-yl)-1H-indol-2-yl)-1H-indazole] | 1000 to 50000 nM | 100 to 1000 nM | 100 to 1000 nM
CNC(=O)CN1CCC(c2ccc3[nH]c(-c4cnc5ccnn5c4)c(C(C)C)c3c2)CC1 [Example 360, 2-(4-(3-isopropyl-2-(pyrazolo[1,5-a]pyrimidin-6-yl)-1H-indol-5-yl)piperidin-1-yl)-N-methylacetamide] | 1000 to 50000 nM | 1000 to 50000 nM | > 3130 nM
Cc1cc2cc(-c3[nH]c4ccc(C5CCNCC5)cc4c3C(C)C)cc(C)n2n1 [Example 142, 5-(3-isopropyl-5-(piperidin-4-yl)-1H-indol-2-yl)-2,7-dimethylpyrazolo[1,5-a]pyridine] | 1000 to 50000 nM | < 100 nM | < 100 nM
CC(C)c1c(-c2ccc3c(N)n[nH]c3c2)[nH]c2ccc(C3CCNCC3)cc12 [Example 84, 6-(3-isopropyl-5-(piperidin-4-yl)-1H-indol-2-yl)-1H-indazol-3-amine] | 100 to 1000 nM | 100 to 1000 nM | 100 to 1000 nM
CC(C)c1c(-c2cnc3c(cnn3C)c2)[nH]c2ccc(C3CCN(CC(=O)N(C)C)CC3)cc12 [Example 367, 2-(4-(3-isopropyl-2-(1-methyl-1H-pyrazolo[3,4-b]pyridin-5-yl)-1H-indol-5-yl)piperidin-1-yl)-N,N-dimethylacetamide] | 1000 to 50000 nM | < 100 nM | < 100 nM
Cc1cnc2ccc(-c3[nH]c4ccc(C5CCNCC5)cc4c3C(C)C)cn12 [Example 114, 6-(3-isopropyl-5-(piperidin-4-yl)-1H-indol-2-yl)-3-methylimidazo[1,2-a]pyridine] | 100 to 1000 nM | < 100 nM | 100 to 1000 nM

More lines, now with the values ahead:

IC50 (human TLR9) | IC50 (human TLR7) | IC50 (human TLR8) | Compound
1000 to 50000 nM | < 100 nM | < 100 nM | CNCC(=O)N1CCC(c2ccc3[nH]c(-c4cc(C)c5ncccc5c4)c(C(C)C)c3c2)CC1 [Example 560, 1-(4-(3-isopropyl-2-(8-methylquinolin-6-yl)-1H-indol-5-yl)piperidin-1-yl)-2-(methylamino)ethan-1-one]
100 to 1000 nM | < 100 nM | < 100 nM | Cc1cc(-c2[nH]c3ccc(C4CCN(CC#N)CC4)cc3c2C(C)C)cn2nnnc12 [Example 961, 2-(4-(3-isopropyl-2-(8-methyltetrazolo[1,5-a]pyridin-6-yl)-1H-indol-5-yl)piperidin-1-yl)acetonitrile]
100 to 1000 nM | < 100 nM | < 100 nM | Cc1nc[nH]c1CN1CCC(c2ccc3[nH]c(-c4ccnc5[nH]nc(C)c45)c(C(C)C)c3c2)CC1 [Example 874, 4-(3-isopropyl-5-(1-((4-methyl-1H-imidazol-5-yl)methyl)piperidin-4-yl)-1H-indol-2-yl)-3-methyl-1H-pyrazolo[3,4-b]pyridine]
1000 to 50000 nM | < 100 nM | < 100 nM | CC(C)c1c(-c2cn(C)c3ncccc23)[nH]c2ccc(C3CCN(Cc4ncn(C)n4)CC3)cc12 [Example 878, 3-(3-isopropyl-5-(1-((1-methyl-1H-1,2,4-triazol-3-yl)methyl)piperidin-4-yl)-1H-indol-2-yl)-1-methyl-1H-pyrrolo[2,3-b]pyridine]
1000 to 50000 nM | < 100 nM | 100 to 1000 nM | Cc1ccnc2[nH]cc(-c3[nH]c4ccc(C5CCN(C(=O)CN(C)C)CC5)cc4c3C(C)C)c12 [Example 458, 2-(dimethylamino)-1-(4-(3-isopropyl-2-(4-methyl-1H-pyrrolo[2,3-b]pyridin-3-yl)-1H-indol-5-yl)piperidin-1-yl)ethan-1-one]
